Results: patent publication US20020132812A1, “Oral hypoglycaemic agents” (priority 2000, published 2002)
Several values for one entry are separate records, joined by “and”; a condition that tells them apart may be missing. Identical values can stand only once.

What was measured:
Assay type in all cases: cell-based
rat pancreatic α-cells = assay: Ca2+-dependent exocytosis (cell capacitance) in single rat pancreatic α-cells
Method: Male Lewis rats (250-300 g; Møllegaard, Lille Skensved, Denmark) were anaesthetised by pentobarbital (100 mg/kg i.p.). After removal of the pancreas, islets were isolated by collagenase digestion and dispersed into single cells using dispase (Sigma). The α-cells were then separated by fluorescence-activated cell sorting as described elsewhere (Josefsen et al. J. Endocrinol., Vol.149, pp.145-154, 1996). Based on the hormone contents and their glucose sensitivities, we estimate that the preparation contains >80% α-cells and <3% β-cells. […]
(§1) Patch pipettes were drawn from borosilicate glass capillaries. […] The currents were recorded using an Axopatch 200B patch clamp amplifier (Axon Instruments, Foster City, Calif., USA), digitized and stored in a computer using the Digidata AD-converter and the software pClamp (version 6.0; Axon Instruments). Alternatively, KATP-currents were recorded using an EPC-9 patch clamp amplifier and the Pulse software (v. 8.01; HEKA Elektronik, Lamprecht/Pfalz, Germany). Exocytosis was monitored as increases in cell membrane capacitance (Neher & Marty Proc. Natl. Acad, Sci. USA, Vol. 79, pp. 6712-6716,1982) using the standard whole-cell configuration of the patch-clamp technique and an EPC-9 patch-clamp amplifier and the Pulse software (v. 8.01; HEKA Elektronik). […]

mouse pancreatic β-cells = assay: Ca2+-evoked exocytosis (cell capacitance, whole-cell patch clamp) in single mouse pancreatic β-cells; details: 100 μM compound in pipette solution, free Ca2+ 0.2 μM
Source text: (§2) Pancreatic islets were isolated from fed NMRI mice (15-23 g). Briefly, the mice were stunned by a blow against the head and killed by cervical dislocation. The pancreas was quickly removed and pancreatic islets were isolated by collagenase (Sigma) digestion (Gromada et al. J. Physiol., Vol. 518 (3) pp. 745-759, 1999). For insulin release experiments, the islets were kept in RPMI-1640 tissue culture medium overnight before use. […]
as §1

[1] = target: T1, ATP-sensitive K+-channels (KATP-channels) (Mus musculus, UniProt Q61743); assay: Whole-cell ATP-sensitive K+ current (KATP-channel activity) in single mouse β-cells; details: 100 μM compound; six experiments; cells dialysed with 0.3 mM ATP and 0.3 mM ADP
T1 construct: Pancreatic islets were isolated from fed NMRI mice (15-23 g); endogenous in cells; host or cells: single beta-cells dispersed from pancreatic islets of NMRI mice
T1 sequence (Q61743 whole entry): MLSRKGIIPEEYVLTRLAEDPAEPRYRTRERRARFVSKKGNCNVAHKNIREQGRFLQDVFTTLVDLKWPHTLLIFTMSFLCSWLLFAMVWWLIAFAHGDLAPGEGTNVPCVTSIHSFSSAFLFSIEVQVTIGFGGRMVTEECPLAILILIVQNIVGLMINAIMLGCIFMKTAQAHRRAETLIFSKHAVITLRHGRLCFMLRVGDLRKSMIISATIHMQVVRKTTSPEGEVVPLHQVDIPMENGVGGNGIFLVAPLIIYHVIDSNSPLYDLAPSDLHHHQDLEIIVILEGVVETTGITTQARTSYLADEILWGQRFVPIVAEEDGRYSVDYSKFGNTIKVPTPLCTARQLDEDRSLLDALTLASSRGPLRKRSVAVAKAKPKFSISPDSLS
T1 sequence (B2RUS7 1-1588 partner): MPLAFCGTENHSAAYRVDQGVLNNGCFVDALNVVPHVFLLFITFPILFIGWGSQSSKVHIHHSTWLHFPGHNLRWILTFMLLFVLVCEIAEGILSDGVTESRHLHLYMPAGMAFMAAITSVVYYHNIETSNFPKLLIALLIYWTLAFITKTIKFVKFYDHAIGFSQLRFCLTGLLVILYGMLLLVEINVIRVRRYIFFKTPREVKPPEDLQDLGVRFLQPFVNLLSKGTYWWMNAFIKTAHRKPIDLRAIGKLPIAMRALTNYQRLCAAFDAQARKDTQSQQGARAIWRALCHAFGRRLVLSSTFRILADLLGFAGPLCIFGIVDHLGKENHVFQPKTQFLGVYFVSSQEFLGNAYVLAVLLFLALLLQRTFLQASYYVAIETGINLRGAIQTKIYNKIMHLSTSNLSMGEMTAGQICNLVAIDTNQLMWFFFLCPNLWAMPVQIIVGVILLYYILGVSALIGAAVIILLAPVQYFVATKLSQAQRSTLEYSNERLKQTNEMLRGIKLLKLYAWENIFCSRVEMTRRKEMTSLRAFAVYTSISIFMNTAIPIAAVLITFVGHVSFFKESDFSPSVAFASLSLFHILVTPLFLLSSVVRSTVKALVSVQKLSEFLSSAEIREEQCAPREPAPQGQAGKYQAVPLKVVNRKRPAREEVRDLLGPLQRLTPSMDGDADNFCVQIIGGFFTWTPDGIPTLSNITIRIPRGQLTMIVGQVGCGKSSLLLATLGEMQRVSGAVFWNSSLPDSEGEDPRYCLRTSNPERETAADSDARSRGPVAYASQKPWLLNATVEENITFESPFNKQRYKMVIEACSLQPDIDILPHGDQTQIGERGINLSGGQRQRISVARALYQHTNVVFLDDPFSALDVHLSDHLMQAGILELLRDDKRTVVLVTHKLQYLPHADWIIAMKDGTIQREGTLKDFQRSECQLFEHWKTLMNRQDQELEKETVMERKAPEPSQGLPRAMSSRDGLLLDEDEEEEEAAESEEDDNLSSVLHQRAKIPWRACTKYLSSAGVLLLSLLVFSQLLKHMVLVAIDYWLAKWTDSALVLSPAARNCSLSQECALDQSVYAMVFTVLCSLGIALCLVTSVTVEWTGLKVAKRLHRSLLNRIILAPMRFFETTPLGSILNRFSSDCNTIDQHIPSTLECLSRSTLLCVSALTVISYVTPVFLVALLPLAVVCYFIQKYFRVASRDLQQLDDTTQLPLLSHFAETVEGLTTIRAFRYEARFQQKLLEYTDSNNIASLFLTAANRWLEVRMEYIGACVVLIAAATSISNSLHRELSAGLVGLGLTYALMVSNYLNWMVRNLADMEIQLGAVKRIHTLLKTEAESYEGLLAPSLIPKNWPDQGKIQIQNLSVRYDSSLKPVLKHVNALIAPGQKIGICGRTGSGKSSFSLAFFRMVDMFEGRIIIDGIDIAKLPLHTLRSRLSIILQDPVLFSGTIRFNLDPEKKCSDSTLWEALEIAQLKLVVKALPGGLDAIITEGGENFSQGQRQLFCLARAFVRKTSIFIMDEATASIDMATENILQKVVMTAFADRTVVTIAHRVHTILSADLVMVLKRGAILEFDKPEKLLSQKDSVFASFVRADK
Source text: as §2, §1

**Q.** How did the “rate of exocytosis (ΔCm/Δt) measured over the first 60 s after establishment of the whole-cell configuration” value (rat pancreatic α-cells; 100 μM compound in pipette solution, free Ca2+ 2 μM, control 16.8±2.5 fF/s, n=5) turn out when `COc1cccc(C(CC2=NCCN2)c2ccccn2)c1` (single isomer, unassigned; (-)) [compound (Ex 2), (−)-2-(2-(4,5-Dihydro-1H-imidazol-2-yl)-1-(3-methoxyphenyl)ethyl)pyridine] was run?
**A.** Its value is 4.6±0.7 fF/s.

**Q.** And the “effect on Ca2+-dependent exocytosis (in words)” value (rat pancreatic α-cells; 0.1 mM compound, Ca2+ 2 μM)?
**A.** Its value is “strong inhibition of the exocytotic response”.

**Q.** What about the “effect on Ca2+-evoked exocytosis (in words)” value (mouse pancreatic β-cells) of the same molecule?
**A.** Its value is “strong stimulation of exocytosis”.

**Q.** What about the “rate of exocytosis (ΔCm/Δt) measured over the first 60 s after establishment of the whole-cell configuration” value (mouse pancreatic β-cells; control 5.0±0.3 fF/s, P<0.025) of the same molecule?
**A.** Its value is 9.4±1.7 fF/s.

**Q.** What about the “whole-cell KATP current / channel activity, % of prestimulatory level” value [1] of the same molecule?
**A.** Its value is 90±4% and 90+4%.
